“Also recorded” adds a separate entry of the source.
Key:
[1] = tested on: C57BL/6 mice; assay: SmartCube behavioral phenotyping in mice; type: in vivo, mouse; conditions: SC, 30 min before testing, in words
Description: The behavioral class and subclass of disclosed compounds was determined in mice using the SmartCube® (Psychogenics, Inc.), a rodent behavioral phenotyping system, with the results shown in FIG. 6.
Animals. Male C57BL/6 mice from Taconic Laboratories were used. All animals were examined, handled, and weighed prior to initiation of testing to assure adequate health and suitability and to minimize non-specific stress associated with manipulation. During the course of the study, mice were group-housed in OPTI ventilated mouse cages with 4 mice/cage. 12/12 light/dark cycles were maintained. The room temperature was maintained between 20 and 23° C. with a relative humidity maintained between 30 and 70%. Chow and water were provided ad libitum for the duration of the study. Animals were acclimated to the vivarium for at least two weeks prior to commencing testing and tested at 8-9 weeks of age. Body weight was measured prior to testing. All mouse husbandry and experimental procedures were conducted with the approval of the appropriate Animal Care and Use Committee.
Drugs and Drug Administration. Compounds were synthesized as described above. Test compounds and vehicle were administered subcutaneously (SC), with doses calculated based on their HCl salts. Normal saline was used as the vehicle. […] All compounds were administered 30 minutes prior to the start of SmartCube® testing. […]

[2] = biological target: CYP2D6 (Homo sapiens (Human), UniProt P10635); assay: in vitro; conditions: both, microsomes, pH 7.4
CYP2D6, sequence (P10635 whole entry, looked up): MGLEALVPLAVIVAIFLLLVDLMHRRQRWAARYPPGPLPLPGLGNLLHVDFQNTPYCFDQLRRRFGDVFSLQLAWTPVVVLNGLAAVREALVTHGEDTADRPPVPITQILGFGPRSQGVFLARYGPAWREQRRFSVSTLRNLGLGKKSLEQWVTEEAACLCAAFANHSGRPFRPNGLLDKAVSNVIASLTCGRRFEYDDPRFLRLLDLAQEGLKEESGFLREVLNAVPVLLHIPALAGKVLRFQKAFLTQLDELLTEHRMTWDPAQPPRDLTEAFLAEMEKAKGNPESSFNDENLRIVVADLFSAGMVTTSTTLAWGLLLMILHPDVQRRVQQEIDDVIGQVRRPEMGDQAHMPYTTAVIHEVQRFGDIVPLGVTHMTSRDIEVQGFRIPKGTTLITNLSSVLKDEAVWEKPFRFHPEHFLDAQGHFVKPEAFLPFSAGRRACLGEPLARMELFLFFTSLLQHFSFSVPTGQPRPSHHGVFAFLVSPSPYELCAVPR

Row | SMILES | SmartCube behavioral class and subclass [1] | inhibition at 10 µM [2]
1 | CCCc1cc(OC)c(CC(C)N)cc1OC (stereo not shown) [Compound 22, 1-(2,5-dimethoxy-4-propylphenyl)propan-2-amine] | greatest probability of belonging to the hallucinogen class; also recorded: profile consistent with its known hallucinogenic activity | 45.5%
2 | CCCCCc1cc(OC)c(CC(C)N)cc1OC (stereo not shown) [Compound 23, 1-(2,5-dimethoxy-4-pentylphenyl)propan-2-amine] | greatest probability of belonging to the anxiolytic class; also recorded: predominantly anxiolytic-like profile and an attenuated hallucinogen-like signature | 64.2%
